Assay results from US12281116B2, “HTT modulators for treating Huntington's disease” (CHDI Foundation, Inc., priority 2021, dated 2025).

What follows are molecules tested on tHTT (total HTT protein) (assay: Time-resolved FRET (HTRF) assay: Q48-Huntingtin and total-Huntingtin detection in GEN020 hESC lysates). Conditions: tHTT activity; human embryonic stem cells GEN020 (mutant 48 Q repeat allele); test compounds 48 hours; read-out: HTT Lowering Activity (HTRF).
Type: cell-based
Experimental: Time-resolved FRET assay: Q48-Huntingtin and total-Huntington detection Detection of endogenous HTT protein in cell lysates was performed using a protocol adapted from Weiss et al. See Weiss A et al. (2009). Single-step detection of mutant huntingtin in animal and human tissues: a bioassay for Huntington's disease. Anal. Biochem. 395(1): 8-15.
The multiplex assay was performed in human embryonic stem cells (GEN020 hESCs with mutant 48 Q repeat allele) which have been derived by Genea Biocells from human blastocysts of HD donors. Bradley C K et al. (2011). Derivation of Huntington's disease-affected human embryonic stem cell lines, Stem Cells Dev. 2011 March; 20(3):495-502. Cells were plated into 384-well collagen coated plates (10,000 cells per well) and left to adhere for 24 hours, test compounds were then added for 48 hours (37° C., 5% CO2), cells were then lysed, and the lysate was transferred to a black 384-well assay plate.
The assay plate included a combination of HTRF labelled monoclonal antibodies added to recognize discreet areas of the HTT protein, the Tb “donor” antibody (2B7-Tb: 0.2 ng/well) recognizes a sequence at the N-terminus of the protein, an Alexa488 “acceptor 1” antibody (MW1-Alexa488: 30 ng/well) recognizes an area in the polyQ region, whereas a d2 “acceptor 2” antibody (MAB2166-d2: 6 ng/well) recognizes a sequence beyond the polyQ region. These detection reagents were incubated with the cell lysate at room temperature for 4-6 hours before having their fluorescence quantified at 615 nm (donor) and 535 nm and 665 nm (acceptor 1 and 2 respectively). The donor/acceptor ratio between these signals indicated the relative quantities of mHTT and tHTT.
Results for various compounds described herein are provided in the Tables below. tHTT activity in this assay is categorized as 10-20 μM (−); 1-10 μM (+); 0.5-1 μM (++); 0.1-0.5 μM (+++); <0.1 μM (++++).

Compound | IC50
COc1cc2nn(C)cc2cc1NC(=O)c1cnc(N2CC3C(N)C3C2)cn1 (centres unmarked) [Example 30, 5-(6-Amino-3-azabicyclo[3.1.0]hexan-3-yl)-N-(6-methoxy-2-methyl-indazol-5-yl)pyrazine-2-carboxamide] | < 100 nM
Cc1cn2cc(NC(=O)c3cnc(N4CC[C@H](CNC5CC5)C4)cn3)c(F)c(C)c2n1 [Example 31, 5-[(3R)-3-[(cyclopropylamino)methyl]pyrrolidin-1-yl]-N-(7-fluoro-2,8-dimethyl-imidazo[1,2-a]pyridin-6-yl)pyrazine-2-carboxamide] | < 100 nM
Cc1cn2cc(NC(=O)c3cnc(N4CC5C(C4)C5N4CCCC4)cn3)cc(F)c2n1 (centres unmarked) [Example 32, N-(8-Fluoro-2-methyl-imidazo[1,2-a]pyridin-6-yl)-5-(6-pyrrolidin-1-yl-3-azabicyclo[3.1.0]hexan-3-yl)pyrazine-2-carboxamide] | 500 to 1000 nM
CCNC1C2CN(c3cnc(C(=O)Nc4cn5cc(C)nc5c(OC)n4)cn3)CC21 (centres unmarked) [Example 34, 5-(6-(ethylamino)-3-azabicyclo[3.1.0]hexan-3-yl)-N-(8-methoxy-2-methylimidazo[1,2-a]pyrazin-6-yl)pyrazine-2-carboxamide] | 100 to 500 nM
Cc1cn2cc(NC(=O)c3cnc(N4CC5C[C@@]5(N)C4)cn3)cc(F)c2n1 (stereo partly drawn) [Example 35, 5-((1S)-1-amino-3-azabicyclo[3.1.0]hexan-3-yl)-N-(8-fluoro-2-methylimidazo[1,2-a]pyridin-6-yl)pyrazine-2-carboxamide] | 500 to 1000 nM
Cc1cn2cc(NC(=O)c3cnc(N4CC5C[C@]5(N)C4)cn3)cc(F)c2n1 (stereo partly drawn) [Example 36, 5-((1R)-1-amino-3-azabicyclo[3.1.0]hexan-3-yl)-N-(8-fluoro-2-methylimidazo[1,2-a]pyridin-6-yl)pyrazine-2-carboxamide] | 100 to 500 nM
Cc1cn2cc(NC(=O)c3cnc(N4CC5C(C4)C5NC4CC4)cn3)cc(F)c2n1 (centres unmarked) [Example 37, 5-[6-(Cyclopropylamino)-3-azabicyclo[3.1.0]hexan-3-yl]-N-(8-fluoro-2-methyl-imidazo[1,2-a]pyridin-6-yl)pyrazine-2-carboxamide] | 100 to 500 nM
Cc1cn2cc(NC(=O)c3cnc(N4CC[C@@H](NC5CC5)C4=O)cn3)cc(F)c2n1 [Example 43, (R)-5-(3-(cyclopropylamino)-2-oxopyrrolidin-1-yl)-N-(8-fluoro-2-methylimidazo[1,2-a]pyridin-6-yl)pyrazine-2-carboxamide] | 100 to 500 nM
Cc1cn2cc(NC(=O)c3cnc(N4CC[C@H](NC5CC5)C4=O)cn3)cc(F)c2n1 [Example 44, (S)-5-(3-(cyclopropylamino)-2-oxopyrrolidin-1-yl)-N-(8-fluoro-2-methylimidazo[1,2-a]pyridin-6-yl)pyrazine-2-carboxamide] | 100 to 500 nM
Cc1cn2cc(NC(=O)c3cnc(N4CC(CN5CC(OCC(=O)NCCC6(CCN=[N+]=[N-])N=N6)C5)C4)cn3)cc(F)c2n1 [Example 45, 5-[3-[[3-[2-[2-[3-(2-azidoethyl)diazirin-3-yl]ethylamino]-2-oxo-ethoxy]azetidin-1-yl]methyl]azetidin-1-yl]-N-(8-fluoro-2-methyl-imidazo[1,2-a]pyridin-6-yl)pyrazine-2-carboxamide] | 500 to 1000 nM
Cc1cn2cc(NC(=O)c3cnc(-n4cc(CNC5CC5)cn4)cn3)cc(F)c2n1 [Example 46, 5-(4-((Cyclopropylamino)methyl)-1H-pyrazol-1-yl)-N-(8-fluoro-2-methylimidazo[1,2-a]pyridin-6-yl)pyrazine-2-carboxamide] | 500 to 1000 nM
